What all share (type): functional
In assay [1] the test system is Candida albicans. Nature of the assay: Antifungal activity against Candida albicans Y0109 after 24 hrs by serial dilution method. The conditions noted are these: Y0109, 24 h.
The subject of assay [2] is Candida albicans. Nature of the assay: Antifungal activity against Candida albicans SC5314 after 24 hrs by serial dilution method. The conditions noted are these: SC5314, 24 h.
A further assay deals with Candida parapsilosis. Nature of the assay: Antifungal activity against Candida parapsilosis ATCC 22019 after 24 hrs by serial dilution method. The conditions noted are these: Lodderomyces parapsilosis, ATCC 22019, 24 h.
The test system of a further assay is Nakaseomyces glabratus. Nature of the assay: Antifungal activity against Candida glabrata after 24 hrs by serial dilution method.
The next assay relates to Cryptococcus neoformans. Nature of the assay: Antifungal activity against Cryptococcus neoformans after 72 hrs by serial dilution method.
The test system of the next assay is Aspergillus fumigatus. Put plainly: Antifungal activity against Aspergillus fumigatus after 48 hrs by serial dilution method.

Converted amounts (≈) assume the structure as drawn. Bounds are passed on as bounds.

What is called MIC80 is an inhibitory concentration at the 80% level, which refers to growth in some studies and to a panel of isolates in others. Higher therefore signals lower susceptibility. For `CC(O)(CO)Cn1ncn(-c2ccc(C(F)(F)C(O)(Cn3cnnn3)c3ccc(F)cc3F)nc2)c1=O` (configuration not stated), the MIC80 in the assay on Candida albicans [1], in the assay on Candida albicans [2], in the assay with Candida parapsilosis, against Nakaseomyces glabratus, against Cryptococcus neoformans and against Aspergillus fumigatus was > 8 µg/mL each time.

As to `CS(=O)(=O)c1ccc(Cn2ncn(-c3ccc(C(F)(F)C(O)(Cn4cnnn4)c4ccc(F)cc4F)nc3)c2=O)cc1` (configuration not stated), the MIC80 with Candida albicans [1], in the assay on Candida albicans [2], in the assay with Candida parapsilosis, with Nakaseomyces glabratus, against Cryptococcus neoformans and against Aspergillus fumigatus was > 64 µg/mL in each case.

In the case of `O=c1n(-c2ccc(C(F)(F)C(O)(Cn3cnnn3)c3ccc(F)cc3F)nc2)cnn1CC#CCO` (configuration not stated), the MIC80 against Candida albicans [1] was > 8 µg/mL; with Candida albicans [2] it was > 8 µg/mL; in the assay on Candida parapsilosis, 4 µg/mL (≈ 7.93 µM); with Nakaseomyces glabratus, > 8 µg/mL; in the assay on Cryptococcus neoformans, > 8 µg/mL; with Aspergillus fumigatus it was > 8 µg/mL.

As to `O=c1n(-c2ccc(C(F)(F)C(O)(Cn3cnnn3)c3ccc(F)cc3F)nc2)cnn1Cc1ccccc1` (configuration not stated), the MIC80 is 1 µg/mL (≈ 1.9 µM) in the assay on Candida albicans [1]; 0.5 µg/mL (≈ 0.95 µM) against Candida albicans [2]; 0.25 µg/mL (≈ 0.475 µM) in the assay with Candida parapsilosis; 4 µg/mL (≈ 7.6 µM) against Nakaseomyces glabratus; 4 µg/mL (≈ 7.6 µM) with Cryptococcus neoformans; > 8 µg/mL in the assay on Aspergillus fumigatus.

On to `O=c1n(-c2ccc(C(F)(F)C(O)(Cn3cnnn3)c3ccc(F)cc3F)nc2)cnn1CCO` (configuration not stated), for which the MIC80 in the assay with Candida albicans [1], in the assay on Candida albicans [2], with Candida parapsilosis, with Nakaseomyces glabratus, against Cryptococcus neoformans and with Aspergillus fumigatus was > 8 µg/mL in each case.

Consider `CC(O)Cn1ncn(-c2ccc(C(F)(F)C(O)(Cn3cnnn3)c3ccc(F)cc3F)nc2)c1=O` (configuration not stated), for which the MIC80 against Candida albicans [1] was > 8 µg/mL; in the assay on Candida albicans [2], > 8 µg/mL; with Candida parapsilosis, 8 µg/mL (≈ 16.2 µM); against Nakaseomyces glabratus, > 8 µg/mL; with Cryptococcus neoformans it was 8 µg/mL (≈ 16.2 µM); in the assay with Aspergillus fumigatus it was > 8 µg/mL.

For `O=c1n(-c2ccc(C(F)(F)C(O)(Cn3cnnn3)c3ccc(F)cc3F)nc2)cnn1Cc1ccc(F)cc1` (configuration not stated), the MIC80 with Candida albicans [1] is 1 µg/mL (≈ 1.84 µM); in the assay on Candida albicans [2], 0.5 µg/mL (≈ 0.918 µM); in the assay with Candida parapsilosis it was 0.25 µg/mL (≈ 0.459 µM); against Nakaseomyces glabratus, 2 µg/mL (≈ 3.67 µM); against Cryptococcus neoformans it was 2 µg/mL (≈ 3.67 µM); in the assay on Aspergillus fumigatus it was > 8 µg/mL.

Turning to `O=c1n(-c2ccc(C(F)(F)C(O)(Cn3cnnn3)c3ccc(F)cc3F)nc2)cnn1Cc1ccccn1` (configuration not stated), the MIC80 is 4 µg/mL (≈ 7.58 µM) against Candida albicans [1]; 2 µg/mL (≈ 3.79 µM) with Candida albicans [2]; 16 µg/mL (≈ 30.3 µM) in the assay with Candida parapsilosis; 2 µg/mL (≈ 3.79 µM) in the assay on Nakaseomyces glabratus; 1 µg/mL (≈ 1.9 µM) in the assay on Cryptococcus neoformans; > 64 µg/mL against Aspergillus fumigatus.

Regarding `CS(=O)(=O)CCn1ncn(-c2ccc(C(F)(F)C(O)(Cn3cnnn3)c3ccc(F)cc3F)nc2)c1=O` (configuration not stated), the MIC80 in the assay with Candida albicans [1], against Candida albicans [2], against Candida parapsilosis, in the assay with Nakaseomyces glabratus, against Cryptococcus neoformans and against Aspergillus fumigatus was > 8 µg/mL in each case.

Take `Cc1ccc(Cn2ncn(-c3ccc(C(F)(F)C(O)(Cn4cnnn4)c4ccc(F)cc4F)nc3)c2=O)cc1` (configuration not stated): the MIC80 against Candida albicans [1] is 1 µg/mL (≈ 1.85 µM); in the assay on Candida albicans [2] it was 1 µg/mL (≈ 1.85 µM); in the assay with Candida parapsilosis it was 0.25 µg/mL (≈ 0.463 µM); in the assay with Nakaseomyces glabratus, 2 µg/mL (≈ 3.7 µM); against Cryptococcus neoformans it was 2 µg/mL (≈ 3.7 µM); in the assay with Aspergillus fumigatus, > 8 µg/mL.

Take `CCC(C)n1ncn(-c2ccc(C(F)(F)C(O)(Cn3cnnn3)c3ccc(F)cc3F)nc2)c1=O` (configuration not stated): the MIC80 in the assay with Candida albicans [1] is 1 µg/mL (≈ 2.03 µM); with Candida albicans [2], 1 µg/mL (≈ 2.03 µM); against Candida parapsilosis, 0.25 µg/mL (≈ 0.508 µM); with Nakaseomyces glabratus, 2 µg/mL (≈ 4.06 µM); with Cryptococcus neoformans it was 4 µg/mL (≈ 8.12 µM); against Aspergillus fumigatus, > 8 µg/mL.

As for `CCC(CC)n1ncn(-c2ccc(C(F)(F)C(O)(Cn3cnnn3)c3ccc(F)cc3F)nc2)c1=O` (configuration not stated), the MIC80 was 2 µg/mL (≈ 3.95 µM) with Candida albicans [1]; 1 µg/mL (≈ 1.97 µM) in the assay with Candida albicans [2]; 0.25 µg/mL (≈ 0.494 µM) in the assay on Candida parapsilosis; 1 µg/mL (≈ 1.97 µM) against Nakaseomyces glabratus; 4 µg/mL (≈ 7.9 µM) in the assay on Cryptococcus neoformans; > 8 µg/mL against Aspergillus fumigatus.

Values taken from ChEMBL document CHEMBL4184109, “Design, synthesis, and structure-activity relationship studies of novel tetrazole antifungal agents with potent activity, broad antifungal spectrum and high selectivity” (Bioorg Med Chem Lett, 2018).
